The term MIC denotes the least concentration at which growth counts as inhibited. Low values mean greater potency, high ones weaker potency.

Converted amounts (≈) assume the structure as drawn. Where two headings read alike, the source gives them in different places. Where no end group is shown, it is not given here.

Three molecules from patent publication US20230293628A1, “MEANS AND METHODS FOR TREATING BACTERIAL INFECTIONS” (priority 2016, published 2023) can be followed below.

In test [1] the test system is Escherichia coli ESBL (CUN E20).
Test [2] has as its system TLR2/6-activated keratinocytes. Description: FSL-1 (TLR2/6)-activated keratinocytes: IL-8 ELISA, Western Blot, real-time PCR. The settings on record: FSL-1 stimulation, 10:1 weight ratio. It is filed as cell-based, human. The procedure:
Thus, the effect of Pep19-2.5 and Pep19-4LF on the toxin (pathogenicity factor) FSL-1 (fibroblast-stimulating lipopeptide), a TLR-2/6 activating compound, was checked.
(§1) The potential of Peptide 19-2.5 and the structurally related compound Peptide 19-4LF has been investigated for their therapeutic application in bacterial skin infections. Primary human keratinocytes responded to TLR2 (FSL-1) but not TLR4 (LPS) activation by increased IL-8 production which was determined with ELISA. […] To detect phosphorylation of the intracellular proteins Western Blot was performed. Gene expression was evaluated by quantitative real-time PCR. […] In addition to acute inflammation, bacterial infections often result in impaired wound healing. Since re-epithelialization is a critical step in wound repair, we tested whether Peptide 19-2.5 affects keratinocyte migration.
(ELISA stands for enzyme-linked immunosorbent assay.)

Test [3] has as its system open wound with wound infections (Staphylococcus aureus, Parvimonas micra, β-hemolysing Streptococcus, Pseudomonas aeruginosa). Description: Healing attempt, infected open wound of a patient, topical salve. It is filed as in vivo. Particulars: for Effect on wound: topical. An excerpt: A patient had—due to a cured tumor in the back—an open wound (see picture at t=0). […] Therefore, a conservative wound treatment was initiated. The wound's localization required the involvement of an ambulant nursing service who took over the daily care. Nevertheless, in sporadic intervals, wound infections occurred which inhibited the healing process. […] Over 6 years, all therapeutical approaches with different antibiotics and topically applied salve formulations failed. In November 2014 the patient was informed about the possibility of a, healing attempt′, to which they agreed. […] This therapeutically effect can be explained only from the use of the Aspidasept® salve, since all other parameters were not changed. The wound is now completely closed.

The test system of test [4] is M. tuberculosis-induced TNF formation of human peripheral blood mononuclear cells. Description: M. tuberculosis supernatant-induced TNFα formation in human mononuclear cells (ELISA). Particulars: for Inhibition of M. tuberculosis-induced TNF formation (in words): FIG. 5. It is filed as cell-based.
Another test relates to keratinocyte migration. Description: Scratch assay, keratinocyte migration. It is filed as cell-based. The procedure:
as §1

In test [5] the test system is monocyte-derived dendritic cells (MoDCs). Description: LPS-stimulated monocyte-derived dendritic cells: maturation, migration, IL-6. It is filed as cell-based.
Text: In monocyte-derived dendritic cells (MoDCs), Pep19-2.5 inhibited LPS-mediated upregulation of the maturation marker CD83 and the co-stimulatory molecule CD80 at a peptide:LPS weight ratio of 1000:1.
as §1

In test [6] the test system is Pseudomonas aeruginosa PS4. Description: CDC Biofilm Reactor, inhibition of biofilm formation. It is filed as cell-based. The settings on record: with and without levofloxacin, 24 hours treatment, FIG. 8. The protocol: The data shown in FIG. 8 were obtained in experiments carried out using the Center for Disease Control (CDC) Biofilm Reactor (CBR). In this case, clinical strain Pseudomonas aeruginosa PS4 was incubated in TSB under continuous shaking for 24 hours, followed by additional 24 hours growth with a flow of diluted TSB. Samples received treatments during another 24 hours dissolved at Phosphate Buffer at 37° C. Biofilms were scraped and serially diluted prior to plating and counting. For confocal microscopy, Biofilms were stained using Live/Death BacLight (Life technologies, Carlsbad, California, USA).

Test [7] relates to Pseudomonas aeruginosa biofilm. Description: Inactivation of biofilm from Pseudomonas aeruginosa with GFP-labelled bacteria. It is filed as cell-based. Particulars: short-time treatment (1 h), FIG. 2. The protocol:
FIG. 2: Inactivation of a biofilm from Pseudomonas aeruginosa with GFP-labelled bacteria (GFP: Green-Fluorescent Protein). Living bacteria: white, inactivated bacteria: dark.
The micrographics shown that only a small fraction of the surface was covered by live bacteria forming a biofilm after 1 h (B) compared with the untreated one (A).

For the molecule `CO/N=C(\C(=O)N[C@@H]1C(=O)N2C(C(=O)O)=C(CSc3nc(=O)c(O)nn3C)CS[C@H]12)c1csc(N)n1` [Ceftriaxon, Ceftriaxone, reference compound], in test [1] (individual agents, Mueller-Hinton medium), the MIC came out at 16 µg/mL (≈ 28.9 µM).
In the case of `N=C(N)NCCC[C@H](NC(=O)[C@H](Cc1ccc(O)cc1)NC(=O)[C@H](CCCCN)NC(=O)[C@H](CCCCN)NC(=O)[C@H](CS)NC(=O)CN)C(=O)N[C@@H](CCCNC(=N)N)C(=O)N[C@@H](Cc1ccccc1)C(=O)N[C@@H](CCCNC(=N)N)C(=O)N[C@@H](Cc1c[nH]c2ccccc12)C(=O)N[C@@H](CCCCN)C(=O)N[C@@H](Cc1ccccc1)C(=O)N[C@@H](CCCCN)C(=O)NCC(=O)N[C@@H](CCCCN)C(=O)N[C@@H](Cc1ccccc1)C(=O)N[C@@H](Cc1c[nH]c2ccccc12)C(=O)N[C@@H](Cc1ccccc1)C(=O)N[C@@H](Cc1c[nH]c2ccccc12)C(=O)NCC(=O)O` [Peptide 19-2.5], the “IL-8 release / IL-8 inducing activity of FSL-1” value in test [2] is recorded as “reduce IL-8 release”. Further, in test [1] (ESBL (CUN E20)), the MIC turned out to be 128 µg/mL (≈ 47.2 µM). The Effect on wound result in test [3] (0.1% in salve (DAC-base cream)) is recorded as “no effect”; in test [3] (1% in salve) it was “significant effect”. Moreover, in test [3] (1% in salve, after 2 months), the “Reduction of the diameter of the wound” value is given as 50%. Moreover, in test [3] (1% in salve, after 6 months), the Wound healing entry is on record as “completely healed”. For the same molecule, the “Inhibition of TNFα formation” value in test [4] (10 μg/ml peptide) is “more than 50%”. Also, the “Inhibition of M. tuberculosis-induced TNF formation (in words)” value in test [4] was “Does dependent inhibition”; in test [4] (listed as Pep19-2.5) it was “strongest anti-TNFα activity”. In addition, the “Concentration promoting cell migration and accelerating artificial wound closure (as low as)” value in the test on keratinocyte migration amounted to 1 ng/mL. For the same molecule, the “Potency in promoting cell migration relative to TGF-β” value with keratinocyte migration is recorded as “equipotent to TGF-β”. In addition, the “LPS-induced migration of MoDCs and CCR7 gene expression” value in test [5] (FIG. 6) is reported as “completely blocked”. The “LPS-mediated upregulation of maturation marker CD83 and co-stimulatory molecule CD80” value in test [5] (peptide:LPS weight ratio of 1000:1) is “inhibited”.
For “GKKYRRFRWKFKGKLFLFG [Peptide 19-4LF, GKKYRRFRWKFKGKLFLFG]”, the “IL-8 release / IL-8 inducing activity of FSL-1” value in test [2] is “reduce IL-8 release”. Further, in test [1] (ESBL (CUN E20)), the MIC worked out at 16 µg/mL. Also, in test [6], the “Inhibition of biofilm formation” value is listed as “Inhibition of biofilm formation”. Further, in test [7], the “Inactivation of biofilm bacteria” value is given as “most bacteria are inactivated”.
